In patent US4880939A, “2,5,6,7-tetranor-18,18,19,19-tetradehydro-4,8-inter-m-phenylene PGI2 derivatives” (Toray Industries, priority 1986, dated 1989):
≈ marks a conversion by molar mass, not a printed value. Like-named read-outs stand apart in the source and are kept apart here.

Columns and labels:
gastric acid secretion [1] = assay: Gastric acid secretion-inhibiting activity, pylorus ligation method (Shay); assay type: in vivo; conditions: injected into duodenum, pylorus ligated rats, five hours, five animals; for ED50: Rattus norvegicus, 5 h; for ED50, Acidity (gastric acid secretion-inhibiting activity) / ED50, Gastric juice volume (gastric acid secretion-inhibiting activity): 300 min
Method: Gastric acid secretion-inhibiting activity of the compounds of the present invention was investigated according to the pylorus ligation method described by Shay in Gastroenterology, 5, 43 (1945).
Under anesthesia by ether, the abdomen of a group of rats is incised at its median and the pylorus is ligated with a silk thread. Simultaneously, a compound to be tested is injected into the duodenum of the same rat. The abdomen is then closed. Five hours later, the abdomen is again incised and the esophagus is ligated. The whole stomach is then removed. The stomach is cut along the greater curvature and the contents of the stomach are transferred to a graduated centrifugal tube. After centrifugation at 3,000 rpm for 10 minutes, the volume of the gastric juice is measured. A portion of the supernatant is taken and titrated to pH 7 with 0.1N NaOH in a pH stat, Radio Meter Inc. An average dose amount of a compound to be tested in a group of five animals, by which either the volume of gastric juice (in ml) or the acidity (in mEq/ml) is reduced to 50% of the corresponding value of a control group, is designated as ED50.

gastric acid secretion [2] = assay: Gastric acid secretion-inhibiting activity, method of M. Ghosh and H. Schild (perfused stomach, pentagastrin stimulation); assay type: in vivo, male SD rats; conditions: ratio of index (area of pH time course) to that of PGE2; femoral vein injection; pentagastrin 0.05 μg/kg per minute
Description: The gastric acid secretion-inhibiting activity of the compounds of the present invention was also investigated according to the method described by M. Ghosh and H. Schild, Br. J. Pharmacol., 13, 54 (1958).
A group of male SD rats is incised in the abdomen under anesthesia by urethane. The lumen of the stomach is perfused with saline through a double tube cannula which has been inserted into the stomach through a lumen formed in the cardia. The pH of draining gastric acid is monitored by a pH meter. The secretion of gatric acid is stimulated by continuous infusion of pentagastrin at a rate of 0.05 μg/kg per minute. When the pH of the gastric acid becomes stable at about 4.0, a compound to be tested is injected through the femoral vein. An index for the gastric acid secretion-inhibiting activity of a compound to be tested is calculated from the area surrounded by a curve drawn by the time course of the pH of the gastric acid, from the time point when an initial increase of the pH is observed due to the gastric acid secretion-inhibition by the compound injected to the time point when the pH comes back to the baseline. The index thus obtained is compared to that of PGE2 and the ratio of the index to that of PGE2 is calculated.

[3] = test system: blood pressure in the carotid; assay: Hypotensive activity; assay type: in vivo, Wistar male rats; conditions: dose reducing blood pressure by 25 mmHg, injected via femoral artery, chloralose anesthesia; for ED (25 mmHg): Rattus norvegicus, read-out: ED25 (hypotensive activity)
Method: A catheter is inserted into and held in the carotid of a group of Wistar male rats under anesthesia by chloralose. Another end of the catheter is connected to a polygraph with a pressure transducer to measure the blood pressure in the carotid. A compound to be tested is injected via a catheter connected to the femoral artery. A dose amount of a compound to be tested, by which the blood pressure is reduced by 25 mmHg in the dose-response curve of the hypotensive compound, is designated as ED25.

[4] = test system: lesions appearing on the stomach corpus; assay: Gastric cytoprotection activity (method of A. Robert; 0.2N NaOH-induced stomach lesions); assay type: in vivo; conditions: dose reducing ulcer index to 50% of control, 30 minutes before 0.2N NaOH; for ED50: po; for ED50 (gastric cytoprotection activity): oral
Method: Gastric cytoprotection activity of the compounds of the present invention was investigated according to the method described by A. Robert in Gastroenterology, 77(3), 443 (1979).
A compound to be tested is orally administered to a group of animals and, 30 minutes later, 0.2N NaOH is orally applied to the animals. One hour later, the animals are sacrificed under anesthesia by chloroform and their stomachs are removed and fixed in 5% formalin solution. The stomach is then incised along the greater curvature. Lengths of lesions appearing on the stomach corpus are measured and summed. The total length is served as an ulcer index. A dose amount of a compound to be tested, by which the ulcer index is reduced to 50% of the index of a control group (100%), is designated as ED50.

platelet aggregation = assay: Platelet aggregation-inhibiting activity (ADP-induced, platelet-rich plasma); assay type: cell-based, person; conditions: PRP, ADP 10 μM, compound added one minute before ADP; for IC50: Platelet
Method: The blood taken from the cubital median vein of a person is centrifuged at 800 rpm for 10 minutes and the supernatant is used as platelet-rich plasma (PRP). The PRP is distributed into small test tubes, and adenosine diphosphate (ADP) is added at a final concentration of 10 μM thereinto to induce platelet aggregation. The size of the aggregation is determined in a platelet aggregation measuring apparatus (RiKa-Denki, Tokyo, Japan) by measuring the change in turbidity of a sample in the small test tube. A compound to be tested is added to the sample one minute before the addition of ADP. The concentration of the compound to be tested, by which the platelet aggregation is reduced to 50% of that observed in a control group, is designated as IC50.

[5] = unstable exo-enol structure; converted into 6-oxo PGF1α; cited from earlier work
[6] = test system: platelet aggregation, gastric acid secretion, peripheral blood vessel; conditions: background; cited from earlier work
[7] = background; cited from earlier work
[8] = background; cited from earlier work; remark: listed apart in the source
[9] = acidity reduced to 50% of control, read-out: ED50, Acidity (gastric acid secretion-inhibiting activity)
[10] = gastric juice volume reduced to 50% of control, read-out: ED50, Gastric juice volume (gastric acid secretion-inhibiting activity)
[11] = acidity reduced to 50% of control
[12] = gastric juice volume reduced to 50% of control

Compound | ED50 (gastric acid secretion [1]; [9]) [µg/kg] | ED50 (gastric acid secretion [1]; [10]) [µg/kg] | Relative activity (PGE2 = 1), gastric acid secretion-inhibiting activity (gastric acid secretion [2]) | ED (25 mmHg) [3] [µg/kg] | ED50 [4] [µg/kg] | IC50 (platelet aggregation) [ng/mL] | also measured
CC#CCC(C)(C)C(O)C=CC1C(O)CC2Oc3c(CCC(=O)O)cccc3C21 (stereo not shown) [Compound 54, 16,16-Dimethyl-2,5,6,7-tetranor-18,18,19,19-tetradehydro-4,8-inter-m-phenylene PGI2] | 230 | > 300 | 16 | 0.64 | 2.8 | 7.3 (≈ 18.3 nM) | 
CCCCC[C@H](O)/C=C/[C@@H]1[C@H]2C/C(=C/CCCC(=O)O)O[C@H]2C[C@H]1O [PGI2, Prostaglandin I2] |  |  |  |  |  |  | stability in neutral aqueous solutions [5]: extremely unstable; gastric acid secretion-inhibiting activity [6]: potent; peripheral blood vessel-dilating activity [6]: potent; platelet aggregation-inhibiting activity [6]: potent; duration of physiological activities in vivo [7]: only short duration; stability in vivo [7]: unstable in vivo
CCCCCC#CCC(C)(C)C(O)C=CC1C(O)CC2Oc3c(CCC(=O)O)cccc3C21 (stereo not shown) [Compound 64, 16,16-dimethyl-20a,20b,20c,20d-tetrahomo-2,5,6,7-tetranor-18,18,19,19-tetradehydro-4,8-inter-m-phenylene PGI2] | > 10000 | 5600 | 0.25 | 15.5 | 27.7 | 5.5 (≈ 12.1 nM) | 
CCC#CCC(C)(C)C(O)C=CC1C(O)CC2Oc3c(CCC(=O)O)cccc3C21 (stereo not shown) [Compound 57, 16,16-Dimethyl-20a-homo-2,5,6,7-tetranor-18,18,19,19-tetradehydro-4,8-inter-m-phenylene PGI2] | 87 | 210 | 5.3 | 0.14 | 1.14 | 3.2 (≈ 7.76 nM) | 
CCCC#CCC(C)C(O)C=CC1C(O)CC2Oc3c(CCC(=O)O)cccc3C21 (stereo not shown) [Compound 46, 16-Methyl-20a,20b-dihomo-2,5,6,7-tetranor-18,18,19,19-tetradehydro-4,8-inter-m phenylene PGI2] | 140 | 120 |  | 0.22 | 2.33 | 0.96 (≈ 2.33 nM) | 
CC#CCC(C)C(O)C=CC1C(O)CC2Oc3c(CCC(=O)O)cccc3C21 [Compound 38, 16(R)-Methyl-2,5,6,7-tetranor-18,18,19,19-tetradehydro-4,8-inter-m-phenylene PGI2] |  |  |  |  |  |  | ED50, Acidity (gastric acid secretion-inhibiting activity) (gastric acid secretion [1]; [11]): 490 µg/kg; ED50, Gastric juice volume (gastric acid secretion-inhibiting activity) (gastric acid secretion [1]; [12]): > 1000 µg/kg; ED25 (hypotensive activity) [3]: 0.57 µg/kg; ED50 (gastric cytoprotection activity) [4]: 24.1 µg/kg; IC50 (platelet aggregation-inhibiting activity) (platelet aggregation): 6.5 ng/mL (≈ 16.9 nM)
CC#CCC(C)(C)C(O)C=CC1C(O)CC2Oc3c(CCCO)cccc3C21 (stereo not shown) [Compound 69, 3-Decarboxy-3-hydroxymethyl-16,16-dimethyl-2,5,6,7-tetranor-18,18,19,19-tetradehydro-4,8-inter-m-phenylene PGI2] | 270 | > 3000 | 2.7 | > 100 | 0.82 |  | 
CCCCC#CCC(C)(C)C(O)C=CC1C(O)CC2Oc3c(CCC(=O)O)cccc3C21 (stereo not shown) [Compound 60, 16,16-Dimethyl-20a,20b,20c-trihomo-2,5,6,7-tetranor-18,18,19,19-tetradehydro-4,8-inter-m-phenylene PGI2] | > 3000 | > 3000 | 0.5 |  |  | 3 (≈ 6.81 nM) | 
CCC#CCC(C)C(O)C=CC1C(O)CC2Oc3c(CCC(=O)O)cccc3C21 (stereo not shown) [Compound 42, 16-Methyl-20a-homo-2,5,6,7-tetranor-18,18,19,19-tetradehydro-4,8-inter-m-phenylene PGI2] | 23 | 18 | 26 |  |  | 0.34 (≈ 0.853 nM) | 
CCCCC[C@H](O)/C=C/[C@@H]1[C@@H](CC(=O)CCCCC(=O)O)[C@@H](O)C[C@H]1O [6-oxo PGF1α] |  |  |  |  |  |  | physiological activity [8]: substantially inactive physiologically
CCCCC[C@H](O)/C=C/[C@H]1[C@H](O)CC(=O)[C@@H]1C/C=C\CCCC(=O)O [PGE2, reference compound] |  |  | 1 |  |  |  | 
CC#CCC(C)C(O)C=CC1C(O)CC2Oc3c(CCC(=O)O)cccc3C21 [Compound 39, 16(S)-methyl-2,5,6,7-tetranor-18,18,19,19-tetradehydro-4,8-inter-m-phenylene PGI2] |  |  |  |  |  |  | ED50, Acidity (gastric acid secretion-inhibiting activity) (gastric acid secretion [1]; [11]): 9.5 µg/kg; ED50, Gastric juice volume (gastric acid secretion-inhibiting activity) (gastric acid secretion [1]; [12]): 25 µg/kg; ED25 (hypotensive activity) [3]: 0.07 µg/kg; ED50 (gastric cytoprotection activity) [4]: 0.38 µg/kg; IC50 (platelet aggregation-inhibiting activity) (platelet aggregation): 0.42 ng/mL (≈ 1.09 nM)
CCCCC#CCC(C)C(O)C=CC1C(O)CC2Oc3c(CCC(=O)O)cccc3C21 (stereo not shown) [Compound 50, 16-Methyl-20a,20b,20c-trihomo-2,5,6,7-tetranor-18,18,19,19-tetradehydro-4,8-inter-m-phenylene PGI2] | 740 | 510 |  |  | 3.74 | 0.63 (≈ 1.48 nM) | 
